Broadly, the IC50 is the concentration that inhibits the measured activity by half.

Drawing on patent US11793885B2, “Substituted benzo[5,6][1,4]diazepino[1,2-a]indoles for the treatment of proliferative disorders” (priority 2017, dated 2023), this text covers IC50 and maximum tolerated dose for two compounds.

Data set [1] deals with NCI-H2110 (Non Small Cell Lung Carcinoma). In words: in vitro cytotoxicity assay, NCI-H2110 cells. As to conditions: NCI-H2110, 120 h, free cytotoxic compound; 5 days. The class given is cell-based.
Source text: (§1) Following cell lines were used for the study: KB (cervical carcinoma, ATCC), NCI-H2110 (Non Small Cell Lung Carcinoma, ATCC), Namalwa (Burkitt's lymphoma, ATCC), Ishikawa (endometrial adenocarcinoma, ECACC), EOL-1 (Acute Myeloid Leukemia, ECACC), JEG-3 (choriocarcinoma, ATCC), JHOS-4 (ovarian adenocarcinoma, Riken Bioresource Center), OV-90 (ovarian adenocarcinoma, ATCC), SKOV-6 (ovarian adenocarcinoma, Memorial Sloan Kettering Cancer Center), Igrov-1 (ovarian adenocarcinoma, National Cancer Institute), KB-GRC1-MDR (cervical carcinoma/Pgp positive, gift from Dr. Roninson at the Ordway Research Institute) and T47D (breast epithelial cancer, ATCC). The cells were maintained and plated for the cytotox experiments in media recommended by the manufacturers. Cells were plated in the 96-well flat bottom plates at a seeding density of 800 cells per well (Ishikawa, JEG-3 or SK-OV-6), 1,000 cells per well (KB, Namalwa, EOL-1, OV-90 and Igrov-1) or 2,000 cell per well (NCI H2110, JHOS-4 and T47D). Conjugates or free drug compounds were diluted in RPMI-1640 (Life Technologies) supplemented with heat-inactivated 100 FBS (Life Technologies) and 0.1 mg/ml gentamycin (Life Technologies), and added to the plated cells. To determine specificity of cytotoxic activity of the conjugates an excess of unconjugated antibody was added to a separate set of diluted conjugates (+block samples, IC50 table). The plates were incubated at 37° C., 500 CO2 for either 4 days (JHOS-4 and T47D cells) or 5 days (KB, NCI H2110, Ishikawa, EOL-1, JEG-3, OV-90, SK-OV-6, NC-H441 and Igrov-1 cells). Alamar blue assay (Invitrogen) was used to determine viability of JHOS-4 and T47D cells, and WST-8 assay (Donjindo Molecular Technologies, Inc.) was applied for viability of KB, NCI H2110, Namalwa, Ishikawa, EOL-1, JEG-4, OV-90, SK-OV-6, NCI-H4441 and Igrov-1 cells. The assays were performed in accordance with the manufacturer's protocols. Killing curves and IC50 were generated using a sigmoidal dose-response nonlinear regression curve fit (GraphPad Software Inc.).
In a further data set the test system is KB (cervical carcinoma). In words: in vitro cytotoxicity assay, KB cells. In kind it is cell-based, human. As to conditions: Homo sapiens, KB, 120 h; free cytotoxic compound; 5 days.
The subject of data set [2] is T47D (breast epithelial cancer). The data set can be described thus: in vitro cytotoxicity assay, T47D cells. In kind it is cell-based. The conditions noted are these: Homo sapiens, 96 h, read-out: IC50 T47D.
Procedure: The cells were maintained and plated for the cytotox experiments in media recommended by the manufacturers. Cells were plated in the 96-well flat bottom plates at a seeding density of 800 cells per well (Ishikawa, JEG-3 or SK-OV-6), 1,000 cells per well (KB, Namalwa, EOL-1, OV-90 and Igrov-1) or 2,000 cell per well (NCI H2110, JHOS-4 and T47D). Conjugates or free drug compounds were diluted in RPMI-1640 (Life Technologies) supplemented with heat-inactivated 100 FBS (Life Technologies) and 0.1 mg/ml gentamycin (Life Technologies), and added to the plated cells. To determine specificity of cytotoxic activity of the conjugates an excess of unconjugated antibody was added to a separate set of diluted conjugates (+block samples, IC50 table). The plates were incubated at 37° C., 500 CO2 for either 4 days (JHOS-4 and T47D cells) or 5 days (KB, NCI H2110, Ishikawa, EOL-1, JEG-3, OV-90, SK-OV-6, NC-H441 and Igrov-1 cells). Alamar blue assay (Invitrogen) was used to determine viability of JHOS-4 and T47D cells, and WST-8 assay (Donjindo Molecular Technologies, Inc.) was applied for viability of KB, NCI H2110, Namalwa, Ishikawa, EOL-1, JEG-4, OV-90, SK-OV-6, NCI-H4441 and Igrov-1 cells. The assays were performed in accordance with the manufacturer's protocols. Killing curves and IC50 were generated using a sigmoidal dose-response nonlinear regression curve fit (GraphPad Software Inc.).
For data set [3] the following is noted: Phase I clinical evaluation; cited from earlier work.

Source text for KB (cervical carcinoma): as §1

For `COC(=O)c1cc2cc(NC(=O)c3cc(NCCCCOc4cc5c(cc4OC)C(=O)N4c6ccccc6C[C@H]4C=N5)cn3C)ccc2s1` [Compound 216], the results for the IC50 (in data set [1]; with KB (cervical carcinoma); in data set [2]) were 9 nM, 0.5 nM and 2 nM, respectively.
With `C=C1C[C@H]2C=Nc3cc(OCCCOc4cc5c(cc4OC)C(=O)N4CC(=C)C[C@H]4C=N5)c(OC)cc3C(=O)N2C1` [SJG-136], the maximum tolerated dose in data set [3] is reported as 45 μg/m^2.
